Drawing on patent US7378425B2, “(1-Indanone)-(1,2,3,6-tetrahydropyridine) compounds” (Eisai R & D Management Co., Ltd., priority 2002, dated 2008), this text covers IC50 for 3 molecules.

Where a name gives a salt, the structure may show the parent alone. Read-outs that look alike come from different tables or passages of the source.

The term IC50 denotes the concentration that inhibits the measured activity by half.

Assay [1] concerns the target sigma receptor (guinea pig brain crude membrane fraction). Nature of the assay: Sigma receptor binding assay (3H-DTG). To be noted: inhibition of 3H-DTG binding to guinea pig brain crude membrane fraction, 25° C., 1 hour. On the procedure: Sigma Receptor Binding Assay
(1) Preparation of Receptor
The washing procedure was repeated once more under the same conditions, and the resulting crude membrane fraction was subjected to the assay.
The specific binding and the non-specific binding in the absence of the test compound were determined in the same way as above except for using 50% DMSO solution instead of the test compound and using a 100 μM Haloperidol solution instead of the test compound, respectively.
(3) Determination of Inhibition
The inhibitions of the test compound at individual concentrations were determined from the ratio of the specific binding in the presence of the test compound to the specific binding in the absence thereof. The dose-response curve was regressed according to a logit-log model in which the ratio of the specific binding in the presence of the test compound to the specific binding in the absence thereof was subjected to logit transformation and plotted against the common logarithm value of each concentration.

Assay [2] deals with T1, acetylcholinesterase (rat brain homogenate) (Rattus norvegicus, UniProt P37136).
T1 construct: Using a rat brain homogenate as a source of acetylcholinesterase; from tissue; host or cells: rat brain homogenate
T1 sequence (P37136 32-614): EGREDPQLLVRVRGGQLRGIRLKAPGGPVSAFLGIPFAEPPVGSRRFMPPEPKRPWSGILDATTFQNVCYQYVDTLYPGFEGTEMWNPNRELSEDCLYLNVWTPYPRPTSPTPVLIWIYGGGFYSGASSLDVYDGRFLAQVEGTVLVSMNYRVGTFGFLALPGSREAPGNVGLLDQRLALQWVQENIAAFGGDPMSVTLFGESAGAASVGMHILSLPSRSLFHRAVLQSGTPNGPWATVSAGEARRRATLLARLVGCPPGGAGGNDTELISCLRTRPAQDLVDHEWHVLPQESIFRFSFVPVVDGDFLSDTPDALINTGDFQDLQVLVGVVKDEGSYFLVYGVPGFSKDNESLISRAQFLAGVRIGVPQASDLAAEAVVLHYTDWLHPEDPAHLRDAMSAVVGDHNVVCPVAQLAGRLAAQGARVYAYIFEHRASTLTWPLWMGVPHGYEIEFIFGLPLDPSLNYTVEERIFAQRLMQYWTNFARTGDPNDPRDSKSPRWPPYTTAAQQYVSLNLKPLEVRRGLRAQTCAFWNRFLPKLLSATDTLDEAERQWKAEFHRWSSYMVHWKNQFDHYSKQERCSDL
Nature of the assay: biochemical. How it is done: Inhibitory Effect on Acetylcholinesterase
To DTNB (5,5′-dithiobis(2-nitrobenzoic acid)), acethylthiocholine (as a substrate) and a test compound was added the rat brain homogenate and incubated.

`CCOc1cc2c(cc1OCC)C(=O)C(CC1=CCN(Cc3ccccc3)CC1)C2` (stereo not shown) [Example 2, 1-benzyl-4-[(5,6-diethoxy-1-indanon)-2-yl]methyl-1,2,3,6-tetrahydropyridine hydrochloride] returned an IC50 in assay [1] of 5 nM.
In assay [2], `COc1cc2c(cc1OC)C(=O)C(CC1=CCN(Cc3ccccc3)CC1)C2` (stereo not shown) [Example 1, 1-benzyl-4-[(5,6-dimethoxy-1-indanon)-2-yl]methyl-1,2,3,6-tetrahydropyridine hydrochloride] yielded an IC50 of 4.2 nM.
Regarding `CCOc1cc2c(cc1OCC)C(=O)C(F)(CC1=CCN(Cc3ccccc3)CC1)C2` (stereo not shown) [Example 3, 1-benzyl-4-[(5,6-diethoxy-2-fluoro-1-indanon)-2-yl]methyl-1,2,3,6-tetrahydropyridine hydrochloride], the IC50 worked out at 0.4 nM in assay [2] (rat brain homogenate, acetylthiocholine substrate, DTNB, absorbance at 412 nm, read-out: Acetylcholinesterase inhibition IC50) and 4.7 nM in assay [1].
